In brackets after ≈: the same amount, converted by molar mass.
Experiments:
Sus scrofa = organism: Sus scrofa; assay: Ratio of the concentration leading to a 50% inhibition of the rate of pig brain microtubule disassembly to that of taxol (0.4 uM) was determined; type: functional
[1] = Ratio of the concentration of compound leading to a 50% inhibition of the rate of pig brain microtubule disassembly to that of compound 13a was determined; type: functional
P388 = assay: The concentration required to 50% inhibition of the P388 leukemic cell proliferation; type: functional, cell-based; conditions: Mus musculus
[2] = Cytotoxicity was measured as ratio of its IC50 value to that of compound 13a; type: functional

| SMILES | Ratio (Sus scrofa) | Ratio [1] | IC50 (P388) [µg/mL] | Ratio [2] |
| --- | --- | --- | --- | --- |
| CC(=O)O[C@@]12CO[C@@H]1C[C@H](O)[C@@]1(C)C(=O)[C@H](O)C3=C(C)[C@@H](OC(=O)[C@H](O)[C@@H](NS(=O)(=O)c4ccc(C)cc4)c4ccccc4)C[C@@](O)([C@@H](OC(=O)c4ccccc4)[C@H]21)C3(C)C | 5 | – | – | – |
| CC(=O)O[C@H]1C(=O)[C@@]2(C)[C@H]([C@H](OC(=O)c3ccccc3)[C@]3(O)C[C@H](OC(=O)[C@H](NC(=O)c4ccccc4)[C@@H](O)c4ccccc4)C(C)=C1C3(C)C)[C@]1(OC(C)=O)CO[C@@H]1C[C@@H]2O | 10 | 20 | 6 (≈ 7.03 µM) | 46 |
| CC(=O)O[C@@]12CO[C@@H]1C[C@H](O)[C@@]1(C)C(=O)[C@H](O)C3=C(C)[C@@H](OC(=O)[C@@H](O)Cc4ccccc4)C[C@@](O)([C@@H](OC(=O)c4ccccc4)[C@H]21)C3(C)C | 3.5 | – | – | – |
| CC(=O)O[C@@]12CO[C@@H]1C[C@H](O)[C@@]1(C)C(=O)[C@H](O)C3=C(C)[C@@H](OC(=O)CCc4ccccc4)C[C@@](O)([C@@H](OC(=O)c4ccccc4)[C@H]21)C3(C)C | 17 | – | – | – |
| CC(=O)O[C@@]12CO[C@@H]1C[C@H](O)[C@@]1(C)C(=O)[C@H](O)C3=C(C)[C@@H](OC(=O)CC(NC(=O)OC(C)(C)C)c4ccccc4)C[C@@](O)([C@@H](OC(=O)c4ccccc4)[C@H]21)C3(C)C (single isomer, unassigned; 10a) | 2.3 | – | – | – |
| C/C=C/C(=O)O[C@H]1C[C@@]2(O)[C@@H](OC(=O)c3ccccc3)[C@@H]3[C@]4(OC(C)=O)CO[C@@H]4C[C@H](O)[C@@]3(C)C(=O)[C@H](OC(C)=O)C(=C1C)C2(C)C | 100 | – | – | – |
| CC(=O)O[C@H]1C(=O)[C@@]2(C)[C@H]([C@H](OC(=O)c3ccccc3)[C@]3(O)C[C@H](OC(=O)[C@H](O)[C@@H](NC(=O)OC(C)(C)C)c4ccccc4)C(C)=C1C3(C)C)[C@]1(OC(C)=O)CO[C@@H]1C[C@@H]2O | 0.5 | 1 | 0.17 (≈ 0.2 µM) | 1.3 |
| CC(=O)O[C@@]12CO[C@@H]1C[C@H](O)[C@@]1(C)C(=O)[C@H](O)C3=C(C)[C@@H](OC(=O)[C@H](O)[C@@H](NC(=O)c4ccccc4)c4ccccc4)C[C@@](O)([C@@H](OC(=O)c4ccccc4)[C@H]21)C3(C)C | 1.3 | – | – | – |
| CC(=O)O[C@@]12CO[C@@H]1C[C@H](O)[C@@]1(C)C(=O)[C@H](O)C3=C(C)[C@@H](OC(=O)[C@H](NC(=O)OC(C)(C)C)[C@@H](O)c4ccccc4)C[C@@](O)([C@@H](OC(=O)c4ccccc4)[C@H]21)C3(C)C | 160 | – | – | – |
| CC(=O)O[C@H]1C(=O)[C@@]2(C)[C@H]([C@H](OC(=O)c3ccccc3)[C@]3(O)C[C@H](OC(=O)[C@@H](NC(=O)c4ccccc4)[C@H](O)c4ccccc4)C(C)=C1C3(C)C)[C@]1(OC(C)=O)CO[C@@H]1C[C@@H]2O | 110 | – | – | – |
| CC(=O)O[C@H]1C(=O)[C@@]2(C)[C@H]([C@H](OC(=O)c3ccccc3)[C@]3(O)C[C@H](OC(=O)C(O)C(C)O)C(C)=C1C3(C)C)[C@]1(OC(C)=O)CO[C@@H]1C[C@@H]2O (stereo partly specified) | 60 | – | – | – |
| CC(=O)O[C@@]12CO[C@@H]1C[C@H](O)[C@@]1(C)C(=O)[C@H](O)C3=C(C)[C@@H](OC(=O)C(O)C(NC(=O)OC(C)(C)C)c4ccccc4)C[C@@](O)([C@@H](OC(=O)c4ccccc4)[C@H]21)C3(C)C (stereo in doubt; 13f) | 4.3 | – | – | – |
| CC(=O)O[C@@]12CO[C@@H]1C[C@H](O)[C@@]1(C)C(=O)[C@H](O)C3=C(C)[C@@H](OC(=O)C(NS(=O)(=O)c4ccc(C)cc4)C(O)c4ccccc4)C[C@@](O)([C@@H](OC(=O)c4ccccc4)[C@H]21)C3(C)C (stereo partly specified) | 15 | – | – | – |
| CC(=O)O[C@@]12CO[C@@H]1C[C@H](O)[C@@]1(C)C(=O)[C@H](O)C3=C(C)[C@@H](OC(=O)C(O)C(NC(=O)OC(C)(C)C)c4ccccc4)C[C@@](O)([C@@H](OC(=O)c4ccccc4)[C@H]21)C3(C)C (stereo in doubt; 13e) | 1.8 | – | – | – |
| CC(=O)O[C@@]12CO[C@@H]1C[C@H](O)[C@@]1(C)C(=O)[C@H](O)C3=C(C)[C@@H](OC(=O)C(O)C(NC(=O)CCCC(=O)O)c4ccccc4)C[C@@](O)([C@@H](OC(=O)c4ccccc4)[C@H]21)C3(C)C (stereo partly specified) | 1 | – | – | – |
| CC(=O)O[C@@]12CO[C@@H]1C[C@H](OC(=O)CCCC(=O)O)[C@@]1(C)C(=O)[C@H](OC(=O)CCCC(=O)O)C3=C(C)[C@@H](OC(=O)C(O)C(NC(=O)OC(C)(C)C)c4ccccc4)C[C@@](O)([C@@H](OC(=O)c4ccccc4)[C@H]21)C3(C)C (stereo partly specified) | 2 | – | – | – |
| CC(=O)O[C@@]12CO[C@@H]1C[C@H](O)[C@@]1(C)C(=O)[C@H](O)C3=C(C)[C@@H](OC(=O)C(O)Cc4ccccc4)C[C@@](O)([C@@H](OC(=O)c4ccccc4)[C@H]21)C3(C)C (stereo partly specified) | 4.5 | – | – | – |
| CC(=O)O[C@@]12CO[C@@H]1C[C@H](O)[C@@]1(C)C(=O)[C@H](O)C3=C(C)[C@@H](OC(=O)[C@H](O)[C@@H](NC(=O)OC(C)(C)C)c4ccccc4)C[C@@](O)([C@@H](OC(=O)c4ccccc4)[C@H]21)C3(C)C.O.O.O [DOCETAXEL] | 0.5 | 1 | 0.13 | 1 |

| SMILES | Ratio (Sus scrofa) | Ratio [1] | IC50 (P388) [µg/mL] | Ratio [2] |
| --- | --- | --- | --- | --- |
| CC(=O)O[C@H]1C(=O)[C@]2(C)[C@@H](OC(=O)CCCC(=O)O)C[C@H]3OC[C@@]3(OC(C)=O)[C@H]2[C@H](OC(=O)c2ccccc2)[C@]2(O)C[C@H](OC(=O)C(O)C(NC(=O)c3ccccc3)c3ccccc3)C(C)=C1C2(C)C (stereo partly specified) | 1 | – | – | – |
| CC(=O)O[C@@]12CO[C@@H]1C[C@H](O)[C@@]1(C)C(=O)[C@H](O)C3=C(C)[C@@H](OC(=O)C(O)C(NC(=O)c4ccccc4)c4ccccc4)C[C@@](O)([C@@H](OC(=O)c4ccccc4)[C@H]21)C3(C)C (stereo partly specified) | 1.3 | – | – | – |
| CC(=O)O[C@H]1C(=O)[C@@]2(C)[C@H]([C@H](OC(=O)c3ccccc3)[C@]3(O)C[C@H](OC(=O)C(O)C(N)c4ccccc4)C(C)=C1C3(C)C)[C@]1(OC(C)=O)CO[C@@H]1C[C@@H]2O (stereo partly specified) | 44 | – | – | – |
| CC(=O)O[C@H]1C(=O)[C@@]2(C)[C@H]([C@H](OC(=O)c3ccccc3)[C@]3(O)C[C@H](OC(=O)[C@@H](O)[C@H](NC(=O)OC(C)(C)C)c4ccccc4)C(C)=C1C3(C)C)[C@]1(OC(C)=O)CO[C@@H]1C[C@@H]2O | 30 | – | – | – |
| CC(=O)O[C@H]1C(=O)[C@@]2(C)[C@H]([C@H](OC(=O)c3ccccc3)[C@]3(O)C[C@H](OC(=O)[C@H](O)[C@@H](NC(=O)c4ccccc4)c4ccccc4)C(C)=C1C3(C)C)[C@]1(OC(C)=O)CO[C@@H]1C[C@@H]2O [PACLITAXEL] | – | 2 | 0.27 (≈ 0.316 µM) | – |
| CC(=O)O[C@@]12CO[C@@H]1C[C@H](O)[C@@]1(C)C(=O)[C@H](O)C3=C(C)[C@@H](OC(=O)C(NC(=O)c4ccccc4)C(O)c4ccccc4)C[C@@](O)([C@@H](OC(=O)c4ccccc4)[C@H]21)C3(C)C (stereo in doubt; 14d) | 170 | – | – | – |
| CC(=O)O[C@@]12CO[C@@H]1C[C@H](O)[C@@]1(C)C(=O)[C@H](O)C3=C(C)[C@@H](OC(=O)C(NC(=O)c4ccccc4)C(O)c4ccccc4)C[C@@](O)([C@@H](OC(=O)c4ccccc4)[C@H]21)C3(C)C (stereo in doubt; 14c) | 10 | – | – | – |
| CC(=O)O[C@@]12CO[C@@H]1C[C@H](O)[C@@]1(C)C(=O)[C@H](O)C3=C(C)[C@@H](OC(=O)C(NC(=O)OC(C)(C)C)C(O)c4ccccc4)C[C@@](O)([C@@H](OC(=O)c4ccccc4)[C@H]21)C3(C)C (stereo partly specified) | 10 | 20 | 4 (≈ 4.95 µM) | 31 |
| CC(=O)O[C@@]12CO[C@@H]1C[C@H](OC(=O)CN)[C@@]1(C)C(=O)[C@H](OC(=O)CN)C3=C(C)[C@@H](OC(=O)C(O)C(NC(=O)OC(C)(C)C)c4ccccc4)C[C@@](O)([C@@H](OC(=O)c4ccccc4)[C@H]21)C3(C)C (stereo partly specified) | 1.2 | 1.4 | 0.19 (≈ 0.206 µM) | 1.5 |
| CC(=O)O[C@@]12CO[C@@H]1C[C@H](O)[C@@]1(C)C(=O)[C@H](O)C3=C(C)[C@@H](OC(=O)C(O)C(N)c4ccccc4)C[C@@](O)([C@@H](OC(=O)c4ccccc4)[C@H]21)C3(C)C (stereo partly specified) | 30 | – | – | – |
| CC(=O)O[C@@]12CO[C@@H]1C[C@H](O)[C@@]1(C)C(=O)[C@H](O)C3=C(C)[C@@H](OC(=O)/C=C/c4ccccc4)C[C@@](O)([C@@H](OC(=O)c4ccccc4)[C@H]21)C3(C)C | 23 | – | – | – |
| CC(=O)O[C@@]12CO[C@@H]1C[C@H](O)[C@@]1(C)C(=O)[C@H](O)C3=C(C)[C@@H](OC(=O)[C@@H](O)[C@H](NC(=O)c4ccccc4)c4ccccc4)C[C@@](O)([C@@H](OC(=O)c4ccccc4)[C@H]21)C3(C)C | 4 | – | – | – |
| CC(=O)O[C@H]1C(=O)[C@@]2(C)[C@H]([C@H](OC(=O)c3ccccc3)[C@]3(O)C[C@H](OC(=O)C(NC(=O)OC(C)(C)C)C(O)c4ccccc4)C(C)=C1C3(C)C)[C@]1(OC(C)=O)CO[C@@H]1C[C@@H]2O (stereo in doubt; 16d) | 108 | – | – | – |
| CC(=O)O[C@@]12CO[C@@H]1C[C@H](O)[C@@]1(C)C(=O)[C@H](O)C3=C(C)[C@@H](OC(=O)CC(NC(=O)OC(C)(C)C)c4ccccc4)C[C@@](O)([C@@H](OC(=O)c4ccccc4)[C@H]21)C3(C)C (single isomer, unassigned; 10b) | 4.1 | – | – | – |
| CC(=O)O[C@H]1C(=O)[C@@]2(C)[C@H]([C@H](OC(=O)c3ccccc3)[C@]3(O)C[C@H](OC(=O)C(NC(=O)OC(C)(C)C)C(O)c4ccccc4)C(C)=C1C3(C)C)[C@]1(OC(C)=O)CO[C@@H]1C[C@@H]2O (stereo in doubt; 16c) | 10 | – | – | – |
| CC(=O)O[C@@]12CO[C@@H]1C[C@H](O)[C@@]1(C)C(=O)[C@H](O)C3=C(C)[C@@H](OC(=O)C(O)C(O)c4ccccc4)C[C@@](O)([C@@H](OC(=O)c4ccccc4)[C@H]21)C3(C)C (stereo partly specified) | 3 | – | – | – |
| CC(=O)O[C@@]12CO[C@@H]1C[C@H](OC(=O)OCC(Cl)(Cl)Cl)[C@@]1(C)C(=O)[C@H](OC(=O)OCC(Cl)(Cl)Cl)C3=C(C)[C@@H](OC(=O)/C=C/c4ccccc4)C[C@@](O)([C@@H](OC(=O)c4ccccc4)[C@H]21)C3(C)C | 1000 | – | – | – |

From ChEMBL document CHEMBL1125650, “Relationships between the structure of taxol analogues and their antimitotic activity” (J Med Chem, 1991)
